We go through one compound from publication PMC4809498, “Artonin E Induces Apoptosis via Mitochondrial Dysregulation in SKOV-3 Ovarian Cancer Cells” (PLoS ONE, 2016).

Converted amounts (≈) assume the structure as drawn.

What is called IC50 is the concentration that inhibits the measured activity by half.

Assay [1] concerns SKOV-3 cells. Nature of the assay: MTT cell viability assay, SKOV-3. It counts as cell-based, human. The following applies: SKOV-3, MTT; for IC50: Homo sapiens. As to the method:
Metastatic ovarian adenocarcinoma (SKOV-3) and normal Chinese hamster ovary (CHO) cell lines were originally obtained from the American Type Culture Collection (ATCC; Manassas, VA). SKOV-3 cells were cultured in McCoy’s 5A medium and CHO cells were cultured in F12K medium. A human periodontal ligament fibroblast cell line was purchased from Lonza, USA and maintained in stroma cell basal medium. T1074 (normal immortalized human ovarian surface epithelial cell line) was originally purchased from Applied Biological Materials (abm®) Canada and cultured in Prigrow 1 medium.
The inhibitory effects of artonin E and two positive controls paclitaxel and carboplatin were examined by MTT assay. Cells at a density of 5×10^3cells/well were placed in a 96-well plate and left for 24 h to attach. The attached cells were exposed to artonin E, paclitaxel, and carboplatin at different concentrations and incubated for 24, 48, and 72 h. Subsequently, 20 μL of 5 mg/mL MTT solution was added after drug treatment and the resulting mixture was incubated for 4 h to form purple formazan. Afterward, 100 μL of dimethyl sulfoxide (DMSO) was transferred into each well to dissolve the purple formazan, and results were measured using a microplate reader (Tecan Infinite M 200 PRO, Männedorf, Switzerland) at an absorbance of 570 nm. The half-maximal concentrations that caused cell growth inhibition (IC50 values) were obtained from the MTT viability growth curve.
(Tetrazolium assays rely on reduction of a dye to a coloured formazan, in cell work by metabolically active cells.)

In assay [2] the test system is SKOV-3 cells. Put plainly: AO-PI double staining. It counts as cell-based, human. Particulars: SKOV-3, 8 μg/mL, 24, 48, 72 h. The procedure:
The effect of artonin E in inducing cell death in SKOV-3 cells was determined using acridine orange (AO) and propidium iodide (PI) double staining. SKOV-3 cells were plated at 5×10^5cells in a T75cm^2 flask and incubated overnight to allow attachment. The cells were then exposed to 8 μg/mL of artonin E for 24, 48, and 72 h. After incubation, the treated cells were washed with PBS, and then trypsinized and centrifuged at 1,500 rpm for 5 min. The cells were then resuspended in cold PBS and centrifuged twice to obtain fresh clean pellets. The fresh pellets were mixed with an equal volume of fluorescent dye staining solution (1:1), comprising 10μg/mL AO and 10 μg/mL PI (dissolved in PBS). The freshly stained cell suspension was dropped onto a glass slide and observed under a UV–fluorescence microscope (Leica attached with Q-Flora Software) within 30 min, prior to fading of the fluorescence.

Assay [3] concerns SKOV-3 cells. Nature of the assay: Annexin V-FITC/PI flow cytometry. The assay is classed as cell-based, human. Particulars: SKOV-3, 8 μg/mL. As to the method:
An Annexin V assay was performed using a BD Pharmingen^TM Annexin V-FITC Apoptosis Detection Kit (ApoAlert Annexin V, Clontech, California, USA). The cells were placed in a 6-well plate and left overnight to attach. Cells were then treated with 8 μg/mL of artonin E for 24, 48, and 72h. The treated cells were trypsinized and centrifuged at 1,500 rpm for 10 min to remove residual media. Subsequently, 1X binding buffer was added to rinse the fresh pellets before their resuspension in 200 μL of binding buffer. The cells were then mixed with 5 μL of Annexin V and 10 μL of PI and incubated for 15 min in the dark at room temperature. The prepared cells were immediately analyzed using flow cytometric analysis (FACS Canto 11 Becton-Dickson). Then, 300 μL of binding buffer was added to each sample to adjust the reaction volume to at least 500 μL for the flow cytometric analysis. The cells treated with DMSO (0.1%, v/v) were used as control.
For orientation: In flow cytometry, cells or beads pass a laser one at a time.

For assay [4], the system named is caspase-8. Nature of the assay: Colorimetric caspase-8 activation assay. It counts as cell-based, human. The following applies: SKOV-3, 8 μg/mL, 48 and 72 h treatment. As to the method:
Calorimetric assay of the activation of caspases-3, -8, and -9 was conducted using R & D system kit, USA. Briefly, in a T75cm^2 flask 90% confluent SKOV-3 cells were induced with artonin E for 24, 48, and 72 h. The induced cells were trypsinized and centrifuged at 1,800 rpm for 10 min. The fresh pellets were washed with cold PBS and immediately lysed with protein lysis buffer. The cell lysate was then kept on ice for 10 min, centrifuged at 10,000 g for 15 min, and transferred into a new tube. The fresh cell lysate (50 μL), which contained 100–200 μg of protein, was added into a 96-well plate in triplicate. Fifty microliters of reaction buffer and 5 μL of caspase were then transferred into each designated well before incubating the plate in a CO2 incubator at 37°C for 2 h. A microplate reader (Tecan Infinite M 200 PRO, Männedorf, Switzerland) was used for analysis at a wavelength of 405 nm.

Assay [5] has as its system caspase-3. Nature of the assay: Western blot, caspase-3. It counts as cell-based, human. The following applies: SKOV-3, 8 μg/mL, as early as 24 h. The procedure:
(§1) SKOV-3 cells were plated in a 75cm^2 culture flask and exposed to artonin E for 24, 48, and 72 h. Lysis buffer (50 mM Tris–HCl, pH 8.0; 120 mM NaCl, 0.5% NP-40; and 1 mM PMSF) was used to extract the total protein. Protein concentration was determined using a BCA protein assay reagent kit (Bio-Rad, USA). Equal amounts of protein (40 μg) extract were subjected to SDS-PAGE and electroblotted onto a polyvinylidenedifluoride membrane (Bio-Rad). Blots were then blocked with 5% non-fat milk in TBS-Tween buffer 7 (0.12 M Tris-base, 1.5 M NaCl, and 0.1% Tween 20) for 1 h at room temperature. After incubating with the appropriate primary antibody overnight at 4°C, the blots were washed and then incubated with horseradish peroxidase conjugated secondary antibody for 1 h at room temperature. The protein bands were detected using pico or femto chemiluminescence (ECL system) and visualized using a UV gel documentation system. The subsequent primary antibodies, which include those for β-actin (1:10,000), Bax (1:10,000), Bcl-2 (1:10,000), HSP-70 (1:10,000), survivin (1:10,000),caspase -3 (1:10,000), caspase -8 (1:10,000), caspase -9 (1;10,000) and cytochrome c (1:200) were purchased from Abcam, Cambridge, United Kingdom.
On the technique in general: In western blotting, separated proteins are transferred to a membrane and probed.

The subject of assay [6] is caspase-9. Nature of the assay: Western blot, caspase-9. Particulars: SKOV-3, 8 μg/mL, as early as 24 h. The assay is classed as cell-based, human. The procedure: as §1
On the set-up of assay [7]: method as in PMID 17855020. The following applies: cited from earlier work.

With `CC(C)=CCc1c(-c2cc(O)c(O)cc2O)oc2c3c(cc(O)c2c1=O)OC(C)(C)C=C3` [Artonin E, artonin E], the IC50 in assay [1] (SK-OV-3, 24 h, 24 h treatment) is 12.8 ± 0.28 µg/mL (≈ 29.4 µM); in assay [1] (SK-OV-3, 48 h, 48 h treatment), 8 µg/mL (≈ 18.3 µM); in assay [1] (SK-OV-3, 72 h, 72 h treatment) it was 6.5 ± 0.5 µg/mL (≈ 14.9 µM). This compound also showed an IC50 values in assay [1] (48 h treatment) of 8.8 ± 0.29 µg/mL (≈ 20.2 µM). The “induction of apoptosis (AO-PI scoring) vs untreated cells” value in assay [2] is on record as “statistically significant (p<0.05) difference”. For the same compound, the “cells at the early stage of apoptosis” value in assay [3] (24 h post treatment) is “more than 40%”. In addition, in assay [3] (48 h post treatment), the “cells at the late stage of apoptosis” value is recorded as “more than 40%”. In addition, the “activation of caspase-8” value in assay [4] was “significantly (p<0.05)elevated”. The “protein expression level of caspase-3” value in assay [5] is “significantly (p<0.05) up-regulated”. Further, the “protein expression level of caspase-9” value in assay [6] was “significantly (p<0.05) up-regulated”. Also, in assay [7], the “radical scavenging against the DPPH radical” value was “strong radical scavenging properties”.
